The values below come from article PMC7112612 (The Journal of Infection, 2013).

≈ marks a conversion by molar mass, not a printed value. Where “and” joins values, the source holds several entries; their conditions need not be identical. Equal values may be shown once. Entries after “also recorded” stand apart in the source; their conditions may differ. Where a name gives a salt, the structure may show the parent alone. Read-outs that look alike come from different tables or passages of the source. A value given as a limit tells only on which side of the number the result lay.

Data set [1] deals with influenza A/WSN/1933 (H1N1) virus. The data set is described as follows: microbe, parasite or virus in culture. Format: cell-based. The conditions noted are these: for EC50: Influenza A virus, H1N1|WSN, MDCK.
A further data set has as its system MDCK cells. The note with it: dog.
The conditions of data set [2]: in vivo, cited from earlier work.
Data set [3] relates to MERS-CoV. It is filed as cell-based.
Data set [4] deals with MERS-CoV. The experiment in a line: microbe, parasite or virus in culture. It is filed as cell-based.
Another data set is described as follows: in vitro. The conditions noted are these: African green monkey.
The test system of data set [5] is MERS-CoV. It is filed as cell-based. This is another data set of the same source.
In a further data set the test system is SARS-CoV. The note with it: mouse, in vivo; cited from earlier work.
A further data set deals with uninfected MDCK cells. The note with it: cited from earlier work.
Setting [6] is: Middle East respiratory syndrome-related coronavirus, Vero.

With `O=C(O)c1ccccc1Nc1cccc(C(F)(F)F)c1` [Flufenamic acid], in data set [1], the “Result of chemical library screening” value was “primary hits with protective results”, the Selectivity index stood at 12.60 and the EC50 worked out at 6.3 µM. This molecule registered a TC50 with MDCK cells of 79.16 µM. Besides, the Serum concentration in [2] (po) is 6–20 [200 mg] μg/ml.

Turning to `CC[C@H]1CN2CCc3cc(OC)c(OC)cc3[C@@H]2C[C@@H]1C[C@H]1NCCc2cc(OC)c(OC)cc21` [Emetine], in data set [1], the “Result of chemical library screening” value is given as “primary hits with protective results” and the EC50 was 14.7 µM. In the data set on MDCK cells, this molecule showed a TC50 of 17.00 µM.

In the case of `COc1c(C)c2c(c(O)c1C/C=C(\C)CCC(=O)OCCN1CCOCC1)C(=O)OC2` [Mycophenolate mofetil], the “average plasma elimination half-life” value in data set [2] (iv, 1500 mg) is recorded as 16.6 h; in data set [2] (po, 1000 mg) it was 17.9 h.

As to `COc1c(C)c2c(c(O)c1C/C=C(\C)CCC(=O)O)C(=O)OC2` [Mycophenolic acid], in the data set on MERS-CoV [3], the “anti-MERS-CoV activity at the tested concentrations (in words)” value (“anti-MERS-CoV activity” below) is listed as “showed anti-MERS-CoV activity” and the “concentration at which CPE was completely absent” value is at least 0.063 µg/mL. Besides, in the data set on MERS-CoV [4], the EC99 came out at 4.86 ± 0.57 µg/mL, the Selectivity index is given as over 195.12 and the “reduction in viral load” value was over 2 log. For the same molecule, in the data set with MERS-CoV [4] (setting [6]), the EC50 came out at 0.17 ± 0.03 mg/L (≈ 0.531 µM) and the EC90 was 2.61 ± 0.34 mg/L (≈ 8.15 µM). For the same molecule, in the data set with MERS-CoV [4] (at 16 μg/ml), the “reduction in viral load” value is reported as about 4 log. This molecule returned a CC50 in “in vitro” of over 32 mg/L. In addition, the “concentration achieving 100% plaque reduction” value in the data set with MERS-CoV [5] came out at 6.4 µg/mL. The “Result of chemical library screening” value in data set [1] is “primary hits with protective results”. The “efficacy against SARS-CoV in an animal model (in words)” value with SARS-CoV is reported as “ineffective”. This molecule also displayed a TC50 in the data set with MDCK cells of 170.00 µM.

For the molecule `NC12CC3CC(CC(C3)C1)C2` [Amantadine], in data set [1], the “Result of chemical library screening” value was “not identified”.

In the case of `Cc1c(Cl)cccc1Nc1ccccc1C(=O)O` [Tolfenamic acid], in data set [1], the “Result of chemical library screening” value is listed as “primary hits with protective results”, the Selectivity index stood at 8.00 and the EC50 was 7.94 µM. This molecule also came in with a TC50 with MDCK cells of 64.00 µM. Moreover, the Serum concentration in data set [2] (po) is 4.1 [300 mg] μg/ml.

With `CCc1nc(N)nc(N)c1-c1ccc(Cl)cc1` [Pyrimethamine], in data set [1], the “Result of chemical library screening” value is “primary hits with protective results”, the Selectivity index turned out to be 1.80 and the EC50 turned out to be 3.1 µM. This molecule displayed a TC50 in the data set with MDCK cells of 5.40 µM. Besides, in data set [2] (po), the Serum concentration was 0.55 [1500/75 mg of sulfadoxine/pyrimethamine] μg/ml.

With `NC(=O)c1ncn([C@@H]2O[C@H](CO)[C@@H](O)[C@H]2O)n1` [Ribavirin], the “anti-MERS-CoV activity” value with MERS-CoV [3] was “showed anti-MERS-CoV activity”. Besides, in the data set with MERS-CoV [4], the EC99 stood at 183.17 ± 11.97 µg/mL, the Selectivity index was over 152.98 and the “reduction in viral load” value is recorded as over 2 log. In the data set with MERS-CoV [4] (setting [6]), this molecule had an EC50 of 9.99 ± 2.97 mg/L (≈ 40.9 µM) and an EC90 of 107 ± 11.2 mg/L (≈ 438 µM). Besides, in the data set on uninfected MDCK cells, the “concentration inhibiting replication of uninfected MDCK cells” value was at least 10 µg/mL. The molecule also yielded a CC50 in “in vitro” of over 1600 mg/L. Further, the “concentration achieving 100% plaque reduction” value in the data set with MERS-CoV [5] is 400 µg/mL. Besides, in [1], the “Result of chemical library screening” value is “primary hits with protective results”, the Selectivity index is reported as 8.00 and the EC50 worked out at 20 µM. The TC50 in the data set on MDCK cells came out at 168.00 µM. For the same molecule, the peak concentration result in data set [2] (iv) is listed as “approximately 24 μg/ml”. The Serum concentration in data set [2] (po) was 2.2 [4 weeks of 600 mg bd] μg/ml.

Regarding `Cc1cccc(Nc2ccccc2C(=O)O)c1C` [Mefenamic acid], in [1], the “Result of chemical library screening” value is listed as “primary hits with protective results”, the Selectivity index turned out to be 4.00 and the EC50 was 50 µM. This molecule also had a TC50 in the data set on MDCK cells of 200.00 µM. In addition, the Serum concentration in data set [2] (po) is 10 [1 g] μg/ml.

For the molecule `Cc1c(O)cccc1C(=O)N[C@@H](CSc1ccccc1)[C@H](O)CN1C[C@H]2CCCC[C@H]2C[C@H]1C(=O)NC(C)(C)C` [nelfinavir mesylate hydrate], in the data set on MERS-CoV [3], the “anti-MERS-CoV activity” value is “suboptimal EC50”.

For the molecule `Cc1cccc(C)c1OCC(=O)N[C@@H](Cc1ccccc1)[C@@H](O)C[C@H](Cc1ccccc1)NC(=O)[C@H](C(C)C)N1CCCNC1=O` [lopinavir], in the data set on MERS-CoV [3], the “anti-MERS-CoV activity” value is “suboptimal EC50; also recorded: not found to be active”.

On to `C[C@]12CC[C@@H]3c4ccc(O)cc4CC[C@H]3[C@@H]1CC[C@@H]2O` [Estradiol], for which, in [1], the “Result of chemical library screening” value is recorded as “primary hits with protective results”, the Selectivity index is reported as 3.00 and the EC50 turned out to be 20 µM. Further, the TC50 in the data set on MDCK cells was determined as 75.00 µM.

With `Cc1ccc(Cl)c(Nc2ccccc2C(=O)O)c1Cl` [Meclofenamate sodium], in data set [1], the “Result of chemical library screening” value is “primary hits with protective results”, the Selectivity index is 2.00 and the EC50 came out at 45 µM. The molecule further came in with a TC50 with MDCK cells of 100.00 µM. The Serum concentration in data set [2] (po) is 4.8 [100 mg tds] μg/ml.

Consider `Sc1ncnc2nc[nH]c12` [Mercaptopurine], for which, in data set [1], the “Result of chemical library screening” value is “primary hits with protective results”, the Selectivity index was 4.00 and the EC50 worked out at 26.5 µM. In the data set on MDCK cells, this molecule came in with a TC50 of 100.00 µM. In addition, the Serum concentration in data set [2] (po) is 0.09 [50 mg/m^2] μg/ml.

B1: Betaferon (protein, UniProt P01574 22-187, looked up, variant C17S)
Interferon beta: MSYNLLGFLQRSSNFQSQKLLWQLNGRLEYCLKDRMNFDIPEEIKQLQQFQKEDAALTIYEMLQNIFAIFRQDSSSTGWNETIVENLLANVYHQINHLKTVLEEKLEKEDFTRGKLMSSLHLKRYYGRILHYLKAKEYSHCAWTIVRVEILRNFYFINRLTGYLRN
modifications: lacks N-terminal Met1
Regarding B1, in the data set with MERS-CoV [3], the “anti-MERS-CoV activity” value is on record as “showed anti-MERS-CoV activity”. For the same molecule, in the data set with MERS-CoV [4], the EC50 was 17.64 IU/ml and 17.64 ± 1.09 IU/ml; the EC90 worked out at 93.31 ± 10.07 IU/ml; the EC99 stood at 135.70 ± 15.96 IU/ml. Also, in the data set with MERS-CoV [5], the “maximum percentage of plaque reduction” value came out at 66.6% and the plaque reduction is reported as 40–50%. The molecule also yielded a CC50 in the data set with Vero cells of 3125 IU/ml. Moreover, the “mean peak serum concentration” value in [2] is given as 40 IU/ml.

B2: Imukin (protein, UniProt P01579 24-161, looked up)
Interferon gamma: QDPYVKEAENLKKYFNAGHSDVADNGTLFLGILKNWKEESDRKIMQSQIVSFYFKLFKNFKDDQSIQKSVETIKEDMNVKFFNSNKKKRDDFEKLTNYSVTDLNVQRKAIHELIQVMAELSPAAKTGKRKRSQMLFRG
B2: the “anti-MERS-CoV activity” value in the data set on MERS-CoV [3] is given as “suboptimal EC50”.
